Reference: US20160045463A1, “USE OF METALLOPROTEASE INHIBITORS IN THE TREATMENT OF POLYCYSTIC LIVER DISEASES” (UNIVERSIDAD DE SALAMANCA, priority 2012, published 2016)

Key:
Assay type in all cases: cell-based
[1] = test system: polycystic human cholangiocytes; experiment: Metalloproteolytic activity of culture supernatants, ES001 fluorogenic peptide cleavage; details: for metalloproteolytic activity in presence of stimulus: polycystic cholangiocytes vs basal, Table 3 final concentration: IL-6, IL-8 50 ng/ml, 17β-estradiol 1 nM/ml, VEGF, EGF, ENA-78, GRO-α 10 ng/ml, HGF 20 ng/ml, FIG. 9
Protocol: (§1) Metalloproteolytic or metalloprotease activity was measured in supernatants of cultures of normal human cholangiocytes and polycystic human cholangiocytes by an assay based on the cleavage of the ES001 fluorogenic synthetic peptide (R&D Systems Minneapolis, Minn., USA) that emits fluorescence proportional to metalloproteolytic activity. The substrate Mca-Pro-Leu-Gly-Leu-Dpa-Ala-Arg-NH2 [Mca: (7-Methoxycoumarin-4-yl)acetyl, Dpa: N-3-(2,4-Dinitrophenyl)-L-2,3-diaminopropionyl] (Knight C G, et al. FEBS Letters 1992; 296:263) is lysed between glycine and leucine by the action of the MMPs, especially MMP-1 (collagenase 1), MMP-2 (gelatinase A), MMP-7 (matrilysin), MMP-8 (collagenase 2), MMP-9 (gelatinase B), MMP-12 (macrophage elastase), MMP-13 (collagenase 3), MMP-14 (MT1-MMP), MMP-15 (MT2-MMP) and MMP-16 (MT3-MMP).
(§2) The basal metalloproteolytic activity of normal human cholangiocyte and polycystic human cholangiocytes cultures was determined by trypsinising the contents of 250 ml flasks and counting the number of cells in an inverted optical microscope using a Neubauer camera and a ½ dilution of the cell solution with trypan blue (Sigma). Next, 300,000 cells were seeded in each well of a 6-well plate and incubated with enriched DMEM/F-12 medium for 24 hours. After this time, the cells were washed with PBS and the culture medium changed for 2 ml of quiescent medium (DMEM/F-12, 1% FBS and 1% P/S) and incubated for 6 hours at 37° C./5% CO2. The supernatant was collected from each well and centrifuged at 4° C. for 10 minutes at 1,500 rpm to remove the dead cells present in the supernatant. The supernatant was concentrated 50 times using a 15 kDa (Millipore) Amicon Ultra concentrator. Next the concentrated supernatant was incubated for 2 hours at 37° C. with the ES001 fluorogenic peptide at a final concentration of 10 μM. Also, GM6001 (a global MMP inhibitor) and aprotinin (a global inhibitor of serine proteases) (both from Sigma-Aldrich) were used as controls of the specificity of the analysis of MMP activity in the assay. Recombinant MMP-10 (kindly provided by Dr. José Antonio Rodriguez Garcia, Laboratorio de Ateroesclerosis e Inflamación del CIMA, Universidad de Navarra) was used as a positive control and DMEM/F-12 medium without serum was used as the negative control. The fluorescence determination was kinetically measured in a Spectra MAX GeminiXS (Molecular Devices Sunnyvale, Calif., USA) spectrophotometer at excitation-emission wavelengths of 320-405 nm. The fluorescence intensity emitted by the culture medium was extracted from the metalloproteolytic activity values. The metalloproteolytic activity was calculated from the tangent to the curve of the fluorescence values using at least six different points over time for each type of cell and condition.
(§3) To analyse the effect of various stimuli on the metalloproteolytic activity of normal and polycystic human cholangiocytes cultures, a protocol similar to that described before in Example 2 was followed, but in this case the incubation of the cells was with quiescent medium (i.e. DMEM/F12, […]) in the presence of the corresponding stimulus (Table 3). Next, the same procedure as described for the analysis of basal metalloproteolytic activity was followed as described in Example 2.
(§4) Taking into account that: i) basal activity of polycystic human cholangiocytes in culture is greater than that of normal human cholangiocytes and ii) that IL-6 and IL-8 increased the metalloproteolytic activity of normal and polycystic human cholangiocytes, the role of these two cytokines on metalloproteolytic hyperactivity of polycystic human cholangiocytes using antibodies against the receptors of IL-6 (IL6R) and/or IL-8 (CXCR1) was investigated. […]

[2] = test system: normal human cholangiocytes; experiment: as above; details: for metalloproteolytic activity in presence of stimulus: normal cholangiocytes vs basal, Table 3 final concentration: IL-6, IL-8 50 ng/ml, 17β-estradiol 1 nM/ml, VEGF, EGF, ENA-78, GRO-α 10 ng/ml, HGF 20 ng/ml, FIG. 9
Protocol: as §1, §2, §3, §4

[3] = test system: polycystic human cholangiocytes; experiment: MMP mRNA expression by quantitative PCR in the presence of IL-6, IL-8 or 17β-estradiol; details: for expression of MMP-2 (mRNA): FIG. 10; for expression of MMP-3 (mRNA): FIG. 11; for expression of MMP-7 (mRNA): FIG. 12; for expression of MMP-10 (mRNA): FIG. 13; for expression of MMP-11 (mRNA): FIG. 14; for expression of MMP-13 (mRNA): FIG. 15; for expression of MMP-15 (mRNA): FIG. 16; for expression of MMP-17 (mRNA): FIG. 17; for expression of MMP-27 (mRNA): FIG. 18
Protocol: (§5) To determine if the metalloproteolytic hyperactivity of polycystic human cholangiocytes is associated with changes in the pattern of expression of MMPs and their natural inhibitors, TIMPs, at the level of mRNA, this was analysed by quantitative PCR (i.e. qPCR) using the cDNA previously obtained as explained in Example 1, the gene expression of a total of 22 genes, including those containing the members of the metalloprotease family: MMP-1, MMP-2, MMP-3, MMP-7, MMP-8, MMP-9, MMP-10, MMP-11, MMP-13, MMP-14, MMP-15, MMP-16, MMP-17, MMP-18, MMP-24, MMP-25, MMP-26, MMP-27 and their natural inhibitors: TIMP-1, TIMP-2, TIMP-3, TIMP-4. Briefly, 4 μl of the cDNA were taken and 1.8 μl of a 10 μM solution of each primer (final concentration 0.9 μM) and 10 μl of FastSYBR® Green (Applied Biosystems) were added, adding sterile water (Braun) to reach a final volume of 20 μl. The amplification reactions were performed in a StepOne Plus (Applied Biosystems) thermo cycler following the standard protocol conditions for FastSYBR Green®.
(§6) The relative estimate of the mRNA levels of the genes of Table 2 were calculated from the PCR progression curve (fluorescence vs. cycle), where the cycle threshold or Ct was determined from when the fluorescence signal begins to increase exponentially. Thus to calculate the difference of relative expression of the normal and polycystic human cholangiocytes, the data obtained were analysed following the modified method of Livak and Schmittgen (Livak K J, et al. Methods 2001; 25:402), according to the following equation:
(§7) Relative values=1.8^(polycystic or normal cholangiocyte GAPDH−polycystic or normal cholangiocyte GEN)
(§8) Where the superscripts “GAPDH polycystic or normal cholangiocytes” and “Gene polycystic or normal cholangiocytes” correspond to the Ct for GAPDH and for each studied gene. The value of 1.8 (in place of 2) was used because it is assumed that the real efficiency of each amplification cycle is around 80% instead of 100%.
as §3
(§9) Taking into account the increase in metalloproteolytic activity induced by interleukins 6 and 8 and also the oestrogen 17β-estradiol in human cholangiocytes in culture, this was further investigated to determine if the increase in activity was correlated with an increase in gene expression at the level of mRNA of the various MMPs.

[4] = test system: normal human cholangiocytes; experiment: as above; details: for expression of MMP-2 (mRNA): FIG. 10; for expression of MMP-3 (mRNA): FIG. 11; for expression of MMP-7 (mRNA): FIG. 12; for expression of MMP-10 (mRNA): FIG. 13; for expression of MMP-11 (mRNA): FIG. 14; for expression of MMP-13 (mRNA): FIG. 15; for expression of MMP-15 (mRNA): FIG. 16; for expression of MMP-17 (mRNA): FIG. 17; for expression of MMP-27 (mRNA): FIG. 18
Protocol: as §5, §6, §7, §8, §3, §9

IL-6: cytokine interleukin 6, present in the cystic fluid
metalloproteolytic activity in presence of stimulus [1]: increase
metalloproteolytic activity in presence of stimulus [2]: increase
expression of the other metalloproteinases 1, 8, 9, 14, 16, 18, 24 and 26 [3]: did not show changes
expression of MMP-2 (mRNA) [3]: increased
expression of MMP-3 (mRNA) [3]: increased
expression of MMP-7 (mRNA) [3]: increased
expression of MMP-10 (mRNA) [3]: none of the 3 molecules caused changes
expression of MMP-11 (mRNA) [3]: increased
expression of MMP-13 (mRNA) [3]: did not cause changes
expression of MMP-15 (mRNA) [3]: increased
expression of MMP-17 (mRNA) [3]: increased
expression of MMP-27 (mRNA) [3]: increased
expression of the other metalloproteinases 1, 8, 9, 14, 16, 18, 24 and 26 [4]: did not show changes
expression of MMP-2 (mRNA) [4]: none of these modules induced changes
expression of MMP-3 (mRNA) [4]: unchanged
expression of MMP-7 (mRNA) [4]: None of the 3 molecules caused changes
expression of MMP-10 (mRNA) [4]: unchanged
expression of MMP-11 (mRNA) [4]: did not change
expression of MMP-13 (mRNA) [4]: did not cause changes
expression of MMP-15 (mRNA) [4]: did not change
expression of MMP-17 (mRNA) [4]: did not change
expression of MMP-27 (mRNA) [4]: did not change

GROα: growth-regulated oncogene a
metalloproteolytic activity in presence of stimulus [1]: did not induce any change
metalloproteolytic activity in presence of stimulus [2]: did not induce any change

IL-8: cytokine interleukin 8, present in the cystic fluid
metalloproteolytic activity in presence of stimulus [1]: increase
metalloproteolytic activity in presence of stimulus [2]: increase
expression of the other metalloproteinases 1, 8, 9, 14, 16, 18, 24 and 26 [3]: did not show changes
expression of MMP-2 (mRNA) [3]: not changed
expression of MMP-3 (mRNA) [3]: unchanged
expression of MMP-7 (mRNA) [3]: unchanged
expression of MMP-10 (mRNA) [3]: none of the 3 molecules caused changes
expression of MMP-11 (mRNA) [3]: increased
expression of MMP-13 (mRNA) [3]: did not change
expression of MMP-15 (mRNA) [3]: not altered
expression of MMP-17 (mRNA) [3]: increased
expression of MMP-27 (mRNA) [3]: unchanged
expression of the other metalloproteinases 1, 8, 9, 14, 16, 18, 24 and 26 [4]: did not show changes
expression of MMP-2 (mRNA) [4]: none of these modules induced changes
expression of MMP-3 (mRNA) [4]: unchanged
expression of MMP-7 (mRNA) [4]: None of the 3 molecules caused changes
expression of MMP-10 (mRNA) [4]: increased
expression of MMP-11 (mRNA) [4]: increased
expression of MMP-13 (mRNA) [4]: increased
expression of MMP-15 (mRNA) [4]: did not change
expression of MMP-17 (mRNA) [4]: did not change
expression of MMP-27 (mRNA) [4]: did not change

EGF: epidermal growth factor
metalloproteolytic activity in presence of stimulus [1]: did not induce any change
metalloproteolytic activity in presence of stimulus [2]: did not induce any change

ENA-78: epithelial neutrophil-activating peptide 78
metalloproteolytic activity in presence of stimulus [1]: did not induce any change
metalloproteolytic activity in presence of stimulus [2]: did not induce any change

HGF: hepatocyte growth factor
metalloproteolytic activity in presence of stimulus [1]: did not induce any change
metalloproteolytic activity in presence of stimulus [2]: did not induce any change

CC1=C(/C=C/C(C)=C/C=C/C(C)=C\C(=O)O)C(C)(C)CCC1 [13-cis-retinoic acid]
basal metalloproteolytic activity in presence of inhibitor ([1]; polycystic cholangiocytes, 13-cis-retinoic acid 10 μM/ml or Marimastat 200 μM/ml, p<0.01, FIG. 21): inhibited
basal metalloproteolytic activity in presence of inhibitor ([2]; normal cholangiocytes, 13-cis-retinoic acid 10 μM/ml or Marimastat 200 μM/ml, p<0.01, FIG. 21): inhibited

VEGF
metalloproteolytic activity in presence of stimulus [1]: did not induce any change
metalloproteolytic activity in presence of stimulus [2]: did not induce any change
